What was measured:
[1] = target: Calcium/calmodulin-dependent protein kinase type II subunit delta (Homo sapiens, UniProt Q13557); assay: Inhibition of recombinant full length human His-tagged CAMK2D expressed in baculovirus expression system using serine/threonine-04 peptide as substrate incubated for 60 mins in presence of ATP by Z'-LYTE assay
[2] = target: Hepatocyte growth factor receptor (Homo sapiens, UniProt P08581, M1250T); assay: Inhibition of human recombinant His-tagged cMET M1250T mutant cytoplasmic domain expressed in baculovirus expression system using tyrosine 6 peptide as substrate after 60 mins in presence of ATP FRET based Z'-LYTE assay
[3] = target: Tyrosine-protein kinase Srms (Homo sapiens, UniProt Q9H3Y6); assay: Inhibition of recombinant full length human GST-tagged SRM expressed in baculovirus expression system using tyrosine-1 peptide as substrate incubated for 60 mins in presence of ATP by Z'-LYTE assay
[4] = target: Calcium/calmodulin-dependent protein kinase type 1 (Homo sapiens, UniProt Q14012); assay: Inhibition of full length human CAMK1 alpha expressed in baculovirus expression system using ZIPtide as substrate after 1 hr in presence of ATP by TR-FRET based assay
[5] = target: Serine/threonine-protein kinase 26 (Homo sapiens, UniProt Q9P289); assay: Inhibition of recombinant full length human GST-tagged MST4 expressed in baculovirus expression system using serine/threonine-7 peptide as substrate incubated for 60 mins in presence of ATP by Z'-LYTE assay
[6] = target: Muscarinic acetylcholine receptor M2 (Homo sapiens) (UniProt P08172); assay: Displacement of [3H]N-Methylscopolamine from full length human recombinant Muscarinic M2 receptor expressed in CHOK1 cells at 10 uM measured after 120 mins by radiometric scintillation analysis relative to control; format: cell-based; settings: CHO-K1
[7] = target: Vascular endothelial growth factor receptor 3 (Homo sapiens, UniProt P35916); assay: Inhibition of recombinant human GST-tagged FLT4 cytoplasmic domain expressed in baculovirus expression system after 1 using tyrosine 4 as substrate after 1 hr in presence of ATP by ZYLTE assay
[8] = target: Serine/threonine-protein kinase B-raf (Homo sapiens, UniProt P15056, V600E); assay: Inhibition of […] N-terminal GST-tagged human BRAF V599E mutant (416 to 766 residues) expressed in baculovirus expression system using Ser/Thr 03 as substrate after 1 hr in presence of ATP by Z'-LYTE assay
[9] = target: Mitogen-activated protein kinase 12 (Homo sapiens, UniProt P53778); assay: Inhibition of recombinant full length human His-tagged p38gamma expressed in baculovirus expression system using serine/threonine-3 peptide as substrate incubated for 60 mins in presence of ATP by Z'-LYTE assay
Sphingosine kinase 2 = Sphingosine kinase 2 (Homo sapiens, UniProt Q9NRA0); assay: Inhibition of recombinant full length GST-tagged human SPHK2 expressed in baculovirus expression system using Sphingosine lipid as substrate in presence of ATP after 1 hr by Adapta assay
[10] = target: Fibroblast growth factor receptor 1 (Homo sapiens, UniProt P11362); assay: Inhibition of recombinant His-tagged human FGFR1 cytoplasmic domain expressed in baculovirus expression system using Tyr 04 peptide as substrate after 1 hr in presence of ATP by Z'-LYTE assay
[11] = target: 5-hydroxytryptamine receptor 3A (Homo sapiens) (UniProt P46098); assay: Displacement of [3H]GR-65630 from full length human recombinant 5HT3 receptor expressed in HEK293 cells at 10 uM measured after 60 mins by radiometric scintillation analysis relative to control; format: cell-based
[12] = target: Serine/threonine-protein kinase pim-1 (Homo sapiens, UniProt P11309); assay: Inhibition of recombinant full length human His-tagged PIM1 expressed in baculovirus expression system using serine/threonine-7 peptide as substrate incubated for 60 mins in presence of ATP by Z'-LYTE assay
[13] = Half life in rat at 0.5 mg/kg, iv 1 mg/kg, po; format: ADME, organism-based; settings: in vivo
[14] = target: Casein kinase I isoform epsilon (Homo sapiens, UniProt P49674); assay: Inhibition of recombinant human full-length GST-tagged CSNK1E expressed in insect cells using FRET-labeled Ser/Thr 11 peptide as substrate measured after 1 hr in presence of ATP by Z'-lyte assay
[15] = target: Proto-oncogene tyrosine-protein kinase receptor Ret (Homo sapiens, UniProt P07949, V804L); assay: Inhibition of recombinant human GST-tagged RET V804L mutant cytoplasmic domain expressed in baculovirus expression system using tyr02 peptide as substrate incubated for 60 mins in presence of ATP by Z'-LYTE assay
[16] = Volume of drug distribution in dog at 0.5 mg/kg, iv or 1 mg/kg, po; format: ADME, organism-based, Canis lupus familiaris; settings: in vivo
[17] = target: Histamine H3 receptor (Homo sapiens) (UniProt Q9Y5N1); assay: Displacement of [3H]N-alpha-Methylhistamine from full length human recombinant histamine H3 receptor expressed in CHO-K1 cells at 10 uM measured after 120 mins by radiometric scintillation analysis relative to control; format: cell-based
[18] = target: Muscarinic acetylcholine receptor M1 (Homo sapiens) (UniProt P11229); assay: Displacement of [3H]N-Methylscopolamine from full length human recombinant Muscarinic M1 receptor expressed in CHOK1 cells at 10 uM measured after 120 mins by radiometric scintillation analysis relative to control; format: cell-based; settings: CHO-K1
Sphingosine kinase 1 = Sphingosine kinase 1 (Homo sapiens, UniProt Q9NYA1); assay: Inhibition of recombinant full length human GST-tagged SPHK1 expressed in baculovirus expression system using sphingosine lipid as substrate incubated for 60 mins in presence of ATP by Adapta assay
[19] = target: Protein kinase C epsilon type (Homo sapiens, UniProt Q02156); assay: Inhibition of recombinant full length human GST-tagged PRKCE expressed in insect expression system using serine/threonine-7 peptide as substrate incubated for 60 mins in presence of ATP by Z'-LYTE assay
[20] = target: Endothelin-1 receptor (Homo sapiens) (UniProt P25101); assay: Displacement of [125I]endothelin-1 from recombinant full length human recombinant ETA receptor expressed in CHO-S cells at 10 uM measured after 120 mins by radiometric scintillation analysis relative to control; format: cell-based
[21] = target: Peroxisome proliferator-activated receptor gamma (Homo sapiens) (UniProt P37231); assay: Displacement of [3H]rosiglitazone from […] human recombinant PPARgamma LBD domain expressed in insect cells at 10 uM measured after 24 hrs by radiometric scintillation analysis relative to control
[22] = target: Serine/threonine-protein kinase Sgk1 (Homo sapiens, UniProt O00141); assay: Inhibition of recombinant human GST-tagged SGK1 catalytic domain (60 to 431 residues) expressed in baculovirus expression system using serine/threonine-6 peptide as substrate incubated for 60 mins in presence of ATP by Z'-LYTE assay
[23] = target: Tyrosine-protein kinase ABL1 (Homo sapiens, UniProt P00519, G250E); assay: Inhibition of recombinant full length human His-tagged ABL1 G250E mutant cytoplasmic domain expressed in baculovirus expression system using tyrosine-2 peptide as substrate incubated for 60 mins in presence of ATP by Z'-LYTE assay
[24] = target: 5-hydroxytryptamine receptor 2A (Homo sapiens) (UniProt P28223); assay: Displacement of [3H]ketanserin from full length human recombinant 5HT2A receptor expressed in CHOK-1 cells at 10 uM measured after 60 mins by radiometric scintillation analysis relative to control; format: cell-based

Sequence of Calcium/calmodulin-dependent protein kinase type II subunit delta (Q13557 whole entry, the tested form may be a part): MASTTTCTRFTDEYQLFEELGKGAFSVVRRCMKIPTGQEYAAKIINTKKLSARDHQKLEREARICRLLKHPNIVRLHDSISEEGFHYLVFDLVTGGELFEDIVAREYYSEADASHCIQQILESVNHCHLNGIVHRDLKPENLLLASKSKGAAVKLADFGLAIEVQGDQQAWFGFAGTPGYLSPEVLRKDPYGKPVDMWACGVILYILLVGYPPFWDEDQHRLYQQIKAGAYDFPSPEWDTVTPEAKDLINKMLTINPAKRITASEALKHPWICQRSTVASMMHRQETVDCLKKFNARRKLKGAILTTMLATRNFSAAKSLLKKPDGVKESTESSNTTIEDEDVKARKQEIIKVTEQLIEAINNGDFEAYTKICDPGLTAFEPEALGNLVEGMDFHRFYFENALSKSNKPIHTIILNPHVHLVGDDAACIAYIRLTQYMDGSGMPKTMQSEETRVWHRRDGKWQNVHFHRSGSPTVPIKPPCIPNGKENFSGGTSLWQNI
Sequence of Endothelin-1 receptor (Homo sapiens) (P25101 whole entry, the tested form may be a part): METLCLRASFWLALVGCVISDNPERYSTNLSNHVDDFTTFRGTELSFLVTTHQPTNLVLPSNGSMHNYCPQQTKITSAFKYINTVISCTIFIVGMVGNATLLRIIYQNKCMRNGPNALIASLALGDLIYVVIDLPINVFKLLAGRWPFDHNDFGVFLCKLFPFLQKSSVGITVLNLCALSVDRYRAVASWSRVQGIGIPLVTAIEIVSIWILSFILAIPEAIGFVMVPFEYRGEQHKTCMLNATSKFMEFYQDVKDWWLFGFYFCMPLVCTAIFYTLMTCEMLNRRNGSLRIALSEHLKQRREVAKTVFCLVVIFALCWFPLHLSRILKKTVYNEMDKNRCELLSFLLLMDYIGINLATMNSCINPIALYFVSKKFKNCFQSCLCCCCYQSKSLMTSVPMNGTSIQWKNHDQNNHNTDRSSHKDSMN
Sequence of Hepatocyte growth factor receptor (P08581 25-1390 M1250T limits assumed): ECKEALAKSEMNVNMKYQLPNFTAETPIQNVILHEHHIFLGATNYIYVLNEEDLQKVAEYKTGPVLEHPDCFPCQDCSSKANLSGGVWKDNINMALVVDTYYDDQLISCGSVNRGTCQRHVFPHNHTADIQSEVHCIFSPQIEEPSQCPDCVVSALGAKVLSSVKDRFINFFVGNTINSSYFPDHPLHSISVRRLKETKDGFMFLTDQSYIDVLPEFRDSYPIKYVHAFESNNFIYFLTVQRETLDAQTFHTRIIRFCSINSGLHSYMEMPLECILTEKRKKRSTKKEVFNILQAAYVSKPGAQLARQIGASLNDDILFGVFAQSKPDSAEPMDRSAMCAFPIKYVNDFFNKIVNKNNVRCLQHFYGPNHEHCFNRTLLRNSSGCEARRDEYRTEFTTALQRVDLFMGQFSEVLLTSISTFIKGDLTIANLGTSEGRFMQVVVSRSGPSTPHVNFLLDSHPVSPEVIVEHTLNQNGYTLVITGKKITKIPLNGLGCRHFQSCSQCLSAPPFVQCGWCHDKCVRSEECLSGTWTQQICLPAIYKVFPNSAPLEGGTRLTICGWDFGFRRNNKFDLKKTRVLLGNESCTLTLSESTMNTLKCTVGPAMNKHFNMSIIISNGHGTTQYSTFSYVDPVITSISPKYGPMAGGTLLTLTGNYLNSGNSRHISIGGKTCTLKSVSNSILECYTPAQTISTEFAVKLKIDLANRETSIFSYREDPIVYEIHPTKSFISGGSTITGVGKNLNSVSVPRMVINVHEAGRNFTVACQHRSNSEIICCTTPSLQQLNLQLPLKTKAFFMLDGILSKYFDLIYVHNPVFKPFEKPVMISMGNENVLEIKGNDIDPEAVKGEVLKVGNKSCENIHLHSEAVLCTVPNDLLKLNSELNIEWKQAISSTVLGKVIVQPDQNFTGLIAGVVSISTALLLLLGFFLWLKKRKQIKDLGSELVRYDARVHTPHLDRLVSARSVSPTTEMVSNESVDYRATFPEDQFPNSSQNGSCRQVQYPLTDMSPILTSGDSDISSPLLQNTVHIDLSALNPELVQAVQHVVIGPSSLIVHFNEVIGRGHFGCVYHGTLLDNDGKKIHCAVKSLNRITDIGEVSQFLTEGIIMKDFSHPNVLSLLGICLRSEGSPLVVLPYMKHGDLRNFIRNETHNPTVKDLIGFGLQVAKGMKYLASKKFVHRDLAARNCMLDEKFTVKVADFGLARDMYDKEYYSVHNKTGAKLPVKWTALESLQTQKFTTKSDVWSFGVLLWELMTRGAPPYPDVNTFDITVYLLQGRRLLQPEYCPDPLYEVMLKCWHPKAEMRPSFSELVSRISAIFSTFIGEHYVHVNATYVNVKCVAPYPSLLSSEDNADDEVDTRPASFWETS
Sequence of Mitogen-activated protein kinase 12 (P53778 whole entry): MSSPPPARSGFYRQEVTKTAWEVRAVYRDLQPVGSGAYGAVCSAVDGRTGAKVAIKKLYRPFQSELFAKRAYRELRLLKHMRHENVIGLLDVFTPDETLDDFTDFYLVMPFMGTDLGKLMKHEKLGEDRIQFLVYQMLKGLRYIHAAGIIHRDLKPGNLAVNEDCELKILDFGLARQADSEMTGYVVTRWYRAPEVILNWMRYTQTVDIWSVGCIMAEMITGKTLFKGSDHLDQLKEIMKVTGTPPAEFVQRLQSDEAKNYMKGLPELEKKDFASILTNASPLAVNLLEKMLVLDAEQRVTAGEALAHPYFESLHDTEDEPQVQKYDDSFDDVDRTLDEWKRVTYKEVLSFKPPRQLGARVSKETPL
Sequence of Sphingosine kinase 2 (Q9NRA0 whole entry, the tested form may be a part): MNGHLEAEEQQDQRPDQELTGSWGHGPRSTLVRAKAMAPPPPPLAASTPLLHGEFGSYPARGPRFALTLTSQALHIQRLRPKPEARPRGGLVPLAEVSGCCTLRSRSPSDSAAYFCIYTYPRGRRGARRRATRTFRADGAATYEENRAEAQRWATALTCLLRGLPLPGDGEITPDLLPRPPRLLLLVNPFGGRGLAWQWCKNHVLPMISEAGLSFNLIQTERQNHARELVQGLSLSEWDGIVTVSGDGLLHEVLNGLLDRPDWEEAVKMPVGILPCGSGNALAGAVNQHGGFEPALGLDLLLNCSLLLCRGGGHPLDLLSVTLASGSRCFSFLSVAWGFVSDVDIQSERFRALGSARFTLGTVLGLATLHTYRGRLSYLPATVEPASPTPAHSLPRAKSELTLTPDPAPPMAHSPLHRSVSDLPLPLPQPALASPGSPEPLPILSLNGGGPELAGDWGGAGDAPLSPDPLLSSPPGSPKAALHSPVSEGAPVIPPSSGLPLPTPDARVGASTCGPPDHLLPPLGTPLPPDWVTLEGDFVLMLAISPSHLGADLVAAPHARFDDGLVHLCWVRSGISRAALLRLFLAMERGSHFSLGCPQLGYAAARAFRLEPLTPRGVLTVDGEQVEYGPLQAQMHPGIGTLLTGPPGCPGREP
Sequence of Peroxisome proliferator-activated receptor gamma (Homo sapiens) (P37231 whole entry, the tested form may be a part): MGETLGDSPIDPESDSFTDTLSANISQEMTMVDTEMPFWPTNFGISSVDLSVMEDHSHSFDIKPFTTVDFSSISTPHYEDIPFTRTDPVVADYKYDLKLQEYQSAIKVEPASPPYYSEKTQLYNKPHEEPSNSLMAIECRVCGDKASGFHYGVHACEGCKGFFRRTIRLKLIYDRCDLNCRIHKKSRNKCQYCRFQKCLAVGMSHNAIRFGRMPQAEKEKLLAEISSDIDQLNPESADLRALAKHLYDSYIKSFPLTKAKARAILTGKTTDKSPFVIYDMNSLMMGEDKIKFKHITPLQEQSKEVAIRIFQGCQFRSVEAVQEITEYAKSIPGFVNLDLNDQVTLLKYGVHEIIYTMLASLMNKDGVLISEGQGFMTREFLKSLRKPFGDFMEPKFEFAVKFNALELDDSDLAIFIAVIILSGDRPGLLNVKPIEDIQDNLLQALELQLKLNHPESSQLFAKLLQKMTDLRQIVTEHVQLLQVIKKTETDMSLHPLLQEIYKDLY
Sequence of Serine/threonine-protein kinase pim-1 (P11309 whole entry): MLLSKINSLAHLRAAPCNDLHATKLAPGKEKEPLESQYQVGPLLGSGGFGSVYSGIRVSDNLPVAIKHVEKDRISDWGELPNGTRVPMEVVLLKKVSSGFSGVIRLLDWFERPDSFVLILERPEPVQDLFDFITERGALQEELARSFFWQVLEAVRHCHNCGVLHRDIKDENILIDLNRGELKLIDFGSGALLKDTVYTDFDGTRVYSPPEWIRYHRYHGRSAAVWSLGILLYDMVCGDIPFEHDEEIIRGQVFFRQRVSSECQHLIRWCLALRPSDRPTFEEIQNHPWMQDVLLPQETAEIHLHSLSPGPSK
Sequence of Tyrosine-protein kinase Srms (Q9H3Y6 whole entry): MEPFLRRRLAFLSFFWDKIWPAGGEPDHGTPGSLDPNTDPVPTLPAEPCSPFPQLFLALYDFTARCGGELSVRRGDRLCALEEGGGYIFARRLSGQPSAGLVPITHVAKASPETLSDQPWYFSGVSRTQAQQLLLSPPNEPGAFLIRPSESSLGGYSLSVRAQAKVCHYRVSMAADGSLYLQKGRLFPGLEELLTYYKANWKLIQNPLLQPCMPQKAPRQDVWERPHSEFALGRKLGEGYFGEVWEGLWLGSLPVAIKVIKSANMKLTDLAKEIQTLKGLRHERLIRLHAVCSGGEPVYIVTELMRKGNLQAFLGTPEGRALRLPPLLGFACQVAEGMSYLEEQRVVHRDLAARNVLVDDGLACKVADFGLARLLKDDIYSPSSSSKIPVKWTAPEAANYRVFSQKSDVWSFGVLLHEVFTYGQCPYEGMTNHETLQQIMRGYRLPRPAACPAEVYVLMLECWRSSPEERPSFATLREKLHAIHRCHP
Sequence of Sphingosine kinase 1 (Q9NYA1 whole entry): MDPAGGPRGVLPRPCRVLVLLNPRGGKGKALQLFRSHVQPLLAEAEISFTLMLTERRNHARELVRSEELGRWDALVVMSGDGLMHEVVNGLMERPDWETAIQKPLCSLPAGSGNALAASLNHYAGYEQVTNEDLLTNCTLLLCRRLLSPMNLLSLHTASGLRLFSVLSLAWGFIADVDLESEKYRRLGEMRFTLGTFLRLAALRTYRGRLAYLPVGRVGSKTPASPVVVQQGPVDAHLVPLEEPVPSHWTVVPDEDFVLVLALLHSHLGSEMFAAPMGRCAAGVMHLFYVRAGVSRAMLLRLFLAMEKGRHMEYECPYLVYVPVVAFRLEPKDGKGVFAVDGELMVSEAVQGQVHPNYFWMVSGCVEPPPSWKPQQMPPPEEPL

`C[C@@H]1C[C@H]1C(=O)N1CCN(c2cnc(C#N)c(-c3cnn(C)c3)n2)C[C@H]1C` showed an IC50 [1] greater than 100 µM, an IC50 [2] greater than 100 µM and an IC50 [3] greater than 100 µM. The IC50 [4] was greater than 100 µM, the IC50 [5] was greater than 100 µM and the inhibition [6] was 1%. For the same compound, the IC50 [7] was greater than 100 µM, the IC50 [8] was greater than 100 µM and the IC50 [9] was greater than 100 µM. The IC50 (Sphingosine kinase 2) was greater than 100 µM, the IC50 [10] was greater than 100 µM and the inhibition [11] was 9%. The IC50 [12] was greater than 100 µM, the half-life [13] was 36 min and the IC50 [14] was greater than 100 µM. For the same compound, the IC50 [15] was greater than 100 µM, the Vd [16] was 1.1 L/kg and the inhibition [17] was -1%. It also gave an inhibition [18] of -3%, an IC50 (Sphingosine kinase 1) of 13.8 µM and an IC50 [19] greater than 100 µM. It also gave an inhibition [20] of -9%, an inhibition [21] of 7% and an IC50 [22] greater than 100 µM. It also gave an IC50 [23] greater than 100 µM and an inhibition [24] of 6%.

Source: ChEMBL document CHEMBL4602617, “Discovery and optimization of heteroaryl piperazines as potent and selective PI3Kδ inhibitors” (Bioorg Med Chem Lett, 2020)
